In ChEMBL document CHEMBL3091407, “Synthesis of Novel 3,5-Disubstituted-2-oxindole Derivatives As Antitumor Agents against Human Nonsmall Cell Lung Cancer” (ACS Med Chem Lett, 2013):
Active and inactive are the calls of the source. No cut-off for these calls is given here.

Legend:
A549 [1] = experiment: Inhibition of Akt phosphorylation at Ser473 site in human A549 cells at IC50 after 72 hrs by ELISA; type: cell-based
A549 [2] = experiment: Cytotoxicity against human A549 cells at 0.01 to 100 uM by haemocytometry; type: functional, cell-based; conditions: TDE = time-dependent effect
A549 [3] = experiment: Ratio of sunitinib IC50 to compound IC50 for human A549 cells; type: functional
A549 [4] = experiment: Cell cycle arrest in human A549 cells assessed as decrease in S cells at IC50 after 24 hrs followed by compound washout by propidium iodide staining-based FACS analysis; type: functional; design: scale not given: the % may be the effect or the level left
A549 [5] = experiment: Cell cycle arrest in human A549 cells assessed as decrease in G2 cells at IC50 after 24 hrs followed by compound washout by propidium iodide staining-based FACS analysis; type: functional; design: scale not given: the % may be the effect or the level left
A549 [6] = experiment: Inhibition of Akt phosphorylation at Thr308 site in human A549 cells at IC50 after 72 hrs by ELISA; type: cell-based
MDA-MB-231 [7] = experiment: Cytotoxicity against human MDA-MB-231 cells at 1 to 10 uM after 72 hrs by haemocytometry; type: functional, cell-based
[8] = target: Epidermal growth factor receptor (Homo sapiens) (UniProt P00533); experiment: Inhibition of EGFR phosphorylation at […] in human A549 cells at 10 uM after 3 hrs followed by 10 mins incubation in 10% FBS by Western blotting analysis; type: cell-based
A549 [9] = experiment: Inhibition of Akt phosphorylation at Thr308 site in human A549 cells at 10 uM after 3 hrs followed by 10 mins incubation in 10% FBS by Western blotting analysis; type: cell-based
A549 [10] = experiment: Induction of apoptosis in human A549 cells assessed as nuclear fragmentation at IC50 by fluorescence microscopy; type: functional, cell-based
A549 [11] = experiment: Cytotoxicity against human A549 cells after 24 to 72 hrs by haemocytometry; type: functional, cell-based
A549 [12] = experiment: Cell cycle arrest in human A549 cells assessed as decrease in G1 cells at IC50 after 24 hrs followed by compound washout by propidium iodide staining-based FACS analysis; type: functional; design: scale not given: the % may be the effect or the level left
[13] = target: Receptor tyrosine-protein kinase erbB-2 (Homo sapiens) (UniProt P04626); experiment: Inhibition of Her2 phosphorylation at Tyr1221/1222 in human A549 cells at 10 uM after 3 hrs followed by 10 mins incubation in 10% FBS by Western blotting analysis; type: cell-based
A549 [14] = experiment: Inhibition of Akt phosphorylation in human A549 cells assessed as inhibition of FoxO1 phosphorylation at Thr24 at 10 uM after 3 hrs followed by 10 mins incubation in 10% FBS by Western blotting analysis; type: cell-based
A549 [15] = experiment: Inhibition of Akt phosphorylation in human A549 cells assessed as inhibition of FoxO3a phosphorylation at Thr32 at 10 uM after 3 hrs followed by 10 mins incubation in 10% FBS by Western blotting analysis; type: cell-based
A549 [16] = experiment: Induction of apoptosis in human A549 cells assessed as cellular rupture into debris at IC50 by fluorescence microscopy; type: functional, cell-based
A549 [17] = experiment: Induction of apoptosis in human A549 cells assessed as cell shrinkage at IC50 by fluorescence microscopy; type: functional, cell-based
A549 [18] = experiment: Ratio of perifosine IC50 to compound IC50 for human A549 cells; type: functional
A549 [19] = experiment: Induction of apoptosis in human A549 cells assessed as apoptotic index at IC50 by fluorescence microscopy relative to control; type: functional
[20] = Cytotoxicity against human HCC827 cells after 24 to 72 hrs by haemocytometry; type: functional, cell-based
MDA-MB-231 [21] = experiment: Selectivity for human HCC827 cells over human MDA-MB-231 cells; type: functional

Sequence of Receptor tyrosine-protein kinase erbB-2 (Homo sapiens) (P04626 whole entry): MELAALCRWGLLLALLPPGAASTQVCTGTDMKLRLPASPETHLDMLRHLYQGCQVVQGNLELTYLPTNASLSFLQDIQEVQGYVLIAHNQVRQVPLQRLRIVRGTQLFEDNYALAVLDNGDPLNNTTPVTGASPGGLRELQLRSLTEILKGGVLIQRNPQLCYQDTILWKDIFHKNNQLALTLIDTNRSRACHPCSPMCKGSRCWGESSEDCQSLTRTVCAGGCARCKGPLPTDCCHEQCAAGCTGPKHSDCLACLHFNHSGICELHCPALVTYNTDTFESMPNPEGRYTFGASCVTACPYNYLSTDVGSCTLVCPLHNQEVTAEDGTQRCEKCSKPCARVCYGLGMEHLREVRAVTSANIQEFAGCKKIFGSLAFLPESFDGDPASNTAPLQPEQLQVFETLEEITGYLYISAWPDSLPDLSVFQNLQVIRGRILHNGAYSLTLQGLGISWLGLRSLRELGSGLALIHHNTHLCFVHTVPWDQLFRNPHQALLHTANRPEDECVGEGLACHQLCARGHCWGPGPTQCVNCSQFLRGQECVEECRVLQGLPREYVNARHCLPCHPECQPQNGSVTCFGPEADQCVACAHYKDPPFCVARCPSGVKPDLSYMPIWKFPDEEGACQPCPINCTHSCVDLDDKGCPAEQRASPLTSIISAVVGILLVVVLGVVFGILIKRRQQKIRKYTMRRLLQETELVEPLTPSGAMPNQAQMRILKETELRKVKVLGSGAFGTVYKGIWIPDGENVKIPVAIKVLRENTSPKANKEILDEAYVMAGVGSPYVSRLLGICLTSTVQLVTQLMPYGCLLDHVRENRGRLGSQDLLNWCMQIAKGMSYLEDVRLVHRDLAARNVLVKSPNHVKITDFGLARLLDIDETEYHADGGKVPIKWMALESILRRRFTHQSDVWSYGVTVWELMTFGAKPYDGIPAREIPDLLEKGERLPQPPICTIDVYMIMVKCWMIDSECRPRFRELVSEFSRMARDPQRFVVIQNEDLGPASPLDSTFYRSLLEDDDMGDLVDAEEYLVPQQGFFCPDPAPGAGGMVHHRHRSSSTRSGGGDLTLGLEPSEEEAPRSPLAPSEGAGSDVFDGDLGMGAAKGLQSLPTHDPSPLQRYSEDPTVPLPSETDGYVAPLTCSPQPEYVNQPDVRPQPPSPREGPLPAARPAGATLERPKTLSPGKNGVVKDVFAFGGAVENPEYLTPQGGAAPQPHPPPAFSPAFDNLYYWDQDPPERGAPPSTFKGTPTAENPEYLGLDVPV
Sequence of Epidermal growth factor receptor (Homo sapiens) (P00533 whole entry): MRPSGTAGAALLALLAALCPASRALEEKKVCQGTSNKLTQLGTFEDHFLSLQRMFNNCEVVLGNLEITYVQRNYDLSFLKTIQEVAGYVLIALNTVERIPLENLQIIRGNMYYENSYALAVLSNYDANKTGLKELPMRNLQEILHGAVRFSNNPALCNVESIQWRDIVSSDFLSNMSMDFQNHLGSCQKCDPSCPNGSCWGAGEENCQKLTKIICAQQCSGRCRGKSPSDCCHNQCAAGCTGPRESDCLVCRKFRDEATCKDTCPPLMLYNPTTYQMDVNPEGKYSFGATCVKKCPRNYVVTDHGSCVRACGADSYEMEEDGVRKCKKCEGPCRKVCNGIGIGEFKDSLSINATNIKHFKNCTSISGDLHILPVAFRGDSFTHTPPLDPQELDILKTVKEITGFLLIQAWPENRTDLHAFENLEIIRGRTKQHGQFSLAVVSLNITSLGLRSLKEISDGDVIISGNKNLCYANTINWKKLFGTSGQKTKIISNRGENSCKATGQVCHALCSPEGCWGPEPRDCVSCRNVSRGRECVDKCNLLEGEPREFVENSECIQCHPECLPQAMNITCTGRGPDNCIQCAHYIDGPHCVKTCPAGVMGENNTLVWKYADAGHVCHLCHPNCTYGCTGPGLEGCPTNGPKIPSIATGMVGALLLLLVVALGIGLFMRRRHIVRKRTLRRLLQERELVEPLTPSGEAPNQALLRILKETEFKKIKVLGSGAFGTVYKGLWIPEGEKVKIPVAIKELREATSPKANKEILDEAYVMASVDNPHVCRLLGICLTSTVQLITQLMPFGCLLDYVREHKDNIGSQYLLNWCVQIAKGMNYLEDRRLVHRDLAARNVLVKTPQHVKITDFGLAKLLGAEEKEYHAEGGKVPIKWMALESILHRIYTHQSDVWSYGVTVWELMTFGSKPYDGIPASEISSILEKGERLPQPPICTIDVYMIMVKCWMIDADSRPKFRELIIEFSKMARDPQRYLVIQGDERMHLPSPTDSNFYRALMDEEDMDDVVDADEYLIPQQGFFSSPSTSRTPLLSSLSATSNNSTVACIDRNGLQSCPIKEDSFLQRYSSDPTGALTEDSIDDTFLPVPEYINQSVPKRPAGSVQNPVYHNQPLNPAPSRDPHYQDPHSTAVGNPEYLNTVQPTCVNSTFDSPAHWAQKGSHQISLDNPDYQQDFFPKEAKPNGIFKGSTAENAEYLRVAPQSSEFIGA

COc1cc2c(cc1OC)CN(CC(=O)Nc1ccc3c(c1)/C(=C\c1nccn1C)C(=O)N3)CC2
inhibition (A549 [1]): 20% | Activity (A549 [2]): tde | Ratio IC50 (A549 [3]): 2.5 | Activity (A549 [4]): 1.33% | Activity (A549 [5]): -0.48% | inhibition (A549 [6]): 20% | Activity (MDA-MB-231 [7]): inactive | inhibition [8]: inactive | inhibition (A549 [9]): Active | Activity (A549 [10]): Active | Activity (A549 [11]): Dose-dependent effect | IC50 (A549 [11]): 2750 nM | Activity (A549 [12]): -0.85% | inhibition [13]: inactive | inhibition (A549 [14]): Active | inhibition (A549 [15]): Active | Activity (A549 [16]): Active | Activity (A549 [17]): Active | Ratio IC50 (A549 [18]): 2

COc1cc2c(cc1OC)CN(CC(=O)Nc1ccc3c(c1)/C(=C/c1cccs1)C(=O)N3)CC2
inhibition (A549 [1]): 20% | Activity (A549 [19]): 24% | Activity (A549 [2]): tde | Ratio IC50 (A549 [3]): 2.5 | Activity (A549 [4]): -10.23% | Activity (A549 [5]): -11.2% | inhibition (A549 [6]): 20% | Activity (MDA-MB-231 [7]): inactive | inhibition [8]: inactive | inhibition (A549 [9]): Active | Activity (A549 [10]): Active | Activity (A549 [11]): Dose-dependent effect | IC50 (A549 [11]): 660 nM | Activity (A549 [12]): 21.04% | inhibition [13]: inactive | inhibition (A549 [14]): Active | inhibition (A549 [15]): Active | Activity (A549 [16]): Active | Activity (A549 [17]): Active | IC50 [20]: 45 nM | Ratio IC50 (A549 [18]): 2

COc1cc2c(cc1OC)CN(CC(=O)Nc1ccc3c(c1)CC(=O)N3)CC2
inhibition (A549 [1]): 20% | Activity (A549 [19]): 12% | Activity (A549 [2]): tde | Activity (A549 [4]): -4.99% | Activity (A549 [5]): -14.25% | inhibition (A549 [6]): 20% | Activity (A549 [10]): Active | Activity (A549 [11]): Dose-dependent effect | IC50 (A549 [11]): 16200 nM | Activity (A549 [12]): 19.24% | Activity (A549 [16]): Active | Activity (A549 [17]): Active

CCCCCCCCCCCCCCCCCCOP(=O)([O-])OC1CC[N+](C)(C)CC1 [PERIFOSINE]
Activity (A549 [19]): 32% | Activity (A549 [2]): tde | Activity (A549 [4]): -4.05% | Activity (A549 [5]): -14.51% | Activity (A549 [11]): Dose-dependent effect | IC50 (A549 [11]): 4170 nM | Activity (A549 [12]): 18.56%

COc1cc2c(cc1OC)CN(CC(=O)Nc1ccc3c(c1)/C(=C/c1cnc[nH]1)C(=O)N3)CC2
inhibition (A549 [1]): 20% | Activity (A549 [2]): tde | Ratio IC50 (A549 [3]): 2.5 | Activity (A549 [4]): -0.51% | Activity (A549 [5]): -0.61% | inhibition (A549 [6]): 20% | Activity (A549 [10]): Active | Activity (A549 [11]): Dose-dependent effect | IC50 (A549 [11]): 2190 nM | Activity (A549 [12]): -0.1% | Activity (A549 [16]): Active | Activity (A549 [17]): Active | Ratio IC50 (A549 [18]): 2

COc1cc2ncnc(Nc3ccc(F)c(Cl)c3)c2cc1OCCCN1CCOCC1 [GEFITINIB]
Selectivity ratio (MDA-MB-231 [21]): 1700

COc1cc2c(cc1OC)CN(CC(=O)Nc1ccc3c(c1)/C(=C\c1ccccn1)C(=O)N3)CC2
inhibition (A549 [1]): 20% | Activity (A549 [2]): tde | Activity (A549 [4]): -2.75% | Activity (A549 [5]): 1.69% | inhibition (A549 [6]): 20% | Activity (A549 [10]): Active | Activity (A549 [11]): Dose-dependent effect | IC50 (A549 [11]): 20000 nM | Activity (A549 [12]): 1.06% | Activity (A549 [16]): Active | Activity (A549 [17]): Active
